This passage reports EC50 and IC50 results from PubChem BioAssay AID179 (DTP/NCI, 2004).

In this assay the test system is CEM cells HIV-1 protection, formazan growth assay. Nature of the assay: NCI AIDS Antiviral Assay. To be noted: for IC50: measured here: growth of uninfected CEM cells. In a few lines: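 Steps: treat uninfected and HIV-1-infected human CEM cells at five drug levels; quantify growth by soluble formazan; retest any compound reaching 50% protection; classify actives from the retest.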

Structures are written as SMILES. Where “and” joins values, the source holds several entries; their conditions need not be identical. Equal values may be shown once. Bounds are passed on as bounds.

Turning to `COC(=O)c1ccc(CO/N=C(\c2ccccc2)c2ccccn2)cc1`, the EC50 was above 162 µM and the IC50 amounted to 57.5 µM.

In the case of `CCOC(=O)c1sc2nc(SC)nc(N3CCCCC3)c2c1N`, the EC50 was above 100 µM and the IC50 was above 100 µM.

Consider `Cc1ccc(SSc2nnnn2C)cc1`, for which the EC50 was above 200 µM and the IC50 turned out to be 11 µM.

For `CCOC(=O)c1cc(C(=O)OCC)c2ccccn2c1=O`, the EC50 was above 100 µM and the IC50 turned out to be 43.7 µM.

Consider `O=C1C2=Cc3ccccc3CCN2c2ccc([N+](=O)[O-])cc21`, for which the EC50 is above 200 µM and the IC50 was 166 µM.

Regarding `Cc1ccc(-c2cc(-c3ccco3)c(C#N)c(=S)n2C2OC(CO)C(O)C(O)C2O)cc1` (stereo unspecified), the EC50 is above 200 µM; the IC50 is 9.33 µM and 57.5 µM.

Regarding `CC1=C(C)[C@]2(C)C(C)[C@]13Cn1c(=O)n(-c4ccccc4)c(=O)n1[C@@]32C` (stereo partly specified), the EC50 was above 77.6 µM and the IC50 came out at 51.3 µM.

Regarding `C=CCN1CCC23c4c5ccc(O)c4OC2C(=NN=C2CCC4(O)C6Cc7ccc(O)c8c7C4(CCN6CC=C)C2O8)CCC3(O)C1C5` (stereo unspecified), the EC50 is above 200 µM and the IC50 was 10.5 µM.

For `C=CCNC(=S)/N=C\C(C(=O)OCC)=C(/O)C(=O)OCC`, the EC50 was above 200 µM and the IC50 is above 200 µM.

In the case of `COC(=O)[C@@H]1N2C(=O)C=NO[C@H]2SC1(C)C`, the EC50 was above 1020 µM and the IC50 is above 1020 µM.

`COC[C@@H](N=Cc1ccc([N+](=O)[O-])cc1)C(C)C`: the EC50 was above 200 µM and the IC50 is 67.6 µM.

For the molecule `NC1CSSCC(C(=O)O)NC1=O` (stereo unspecified), the EC50 was above 61.7 µM and the IC50 is above 61.7 µM.

As for `CC(=O)OC1(C#N)CC2OC1C1C2N1C(=O)OC(C)(C)C` (stereo unspecified), the EC50 is above 427 µM and the IC50 is above 427 µM.

As to `c1cc2c(cc1C1OCC3C(c4ccc5c(c4)OCO5)OCC13)OCO2` (stereo unspecified), the EC50 is above 100 µM and the IC50 worked out at 58.9 µM.

In turn, `[O]=[Sb]([OH])([OH])[c]1ccc(O)cc1` came in with an EC50 above 200 µM and an IC50 of 33.9 µM.

As to `CCCCCC[C@H]1CC(=O)C2CCCC[C@@]23CC[C@H](CCl)N13` (stereo partly specified) (tested in a mixture with another compound), the EC50 is above 200 µM and the IC50 was found to be 105 µM.

For the molecule `N#CCCC(CCC#N)(CCC#N)[N+](=O)[O-]`, the EC50 was above 200 µM and the IC50 is above 200 µM.

As to `O=C(/C=C\c1ccc(Cl)c(Cl)c1)c1ccccc1`, the EC50 is above 200 µM and the IC50 stood at 10 µM.

For the molecule `CCOc1ccc(Nc2ccc(N=Nc3c(N)c(C)cc(N=Nc4ccc(-c5ccc(N=Nc6ccc(O)c(C(=O)O)c6)cc5)cc4)c3N)cc2S(=O)(=O)O)cc1`, the 50% effective concentration (EC50) is 10.7 µM and the IC50 came to 79.4 µM.

On to `O=C(O)CCNCCCCNCCC(=O)O`, for which the EC50 is above 813 µM and the IC50 is above 813 µM.

As for `Cc1cccc(/C=N/NC(=S)Nc2ccccc2)n1`, the EC50 was above 200 µM and the IC50 was found to be 2 µM.

`FC(F)(Oc1ccc2oc3ccccc3c2c1)c1nc2ccccc2o1`: the EC50 was above 200 µM and the half-maximal inhibitory concentration (IC50) came out at 33.9 µM.

For `CN1N=C(c2ccncc2)OC1c1ccccc1F` (stereo unspecified), the EC50 is above 200 µM and the IC50 was determined as 129 µM.

In the case of `[N-]=[N+]=NC12CC3C4CC5CC3C(C1)C(C5)C4C2`, the EC50 is above 282 µM and the IC50 is 162 µM.

In the case of `CCCCc1ccc(N2C(=O)c3cc(C)cnc3S2(=O)=O)cc1`, the EC50 was above 200 µM and the IC50 was above 200 µM.

Regarding `CN(C)c1ccc(C(C#N)NNC(=O)Cc2ccccc2)cc1` (stereo unspecified), the EC50 is above 85.1 µM and the IC50 was above 85.1 µM.

On to `C/C(CC(=O)Nc1ccc(Cl)cc1)=N\NC(N)=S`, for which the EC50 was above 871 µM and the IC50 was determined as 123 µM.

Consider `CC1=CC2c3c(O)cc(-c4cc5ccc(O)cc5o4)cc3OC3(c4ccc(O)c5c4OC(C)(C)C=C5)Oc4cc(O)ccc4[C@H](C1)C23` (stereo partly specified), for which the EC50 is above 20.9 µM and the IC50 worked out at 3.72 µM.
